Some test systems named below: SK-MEL-2 melanoma; SN12C renal; M14 melanoma; OVCAR-5 ovarian; SF-295 CNS; BT-549 breast; OVCAR-4 ovarian; DU-145 prostate; NCI/ADR-RES ovarian; MDA-N.
What all share (test): NCI tumour cell line growth inhibition, 48 h

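Compound exposure: 48 hours, 5 concentrations, 96-well plates. Here, GI50 denotes the concentration required for 50% inhibition of growth. The concentration for full growth arrest is given as TGI.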

Turning to `COC1=CC(=O)CC(C)C12Oc1c(Cl)c(OC)cc(OC)c1C2=O` (configuration not stated), the TGI was more than 100 µM in the experiment on SK-MEL-2 melanoma; more than 100 µM in the experiment with SN12C renal; more than 65.7 µM in the experiment with M14 melanoma; more than 100 µM in the experiment on OVCAR-5 ovarian; 57.3 µM in the experiment on SF-295 CNS; more than 89 µM in the experiment with BT-549 breast. Besides, the values for the TGI with OVCAR-4 ovarian, with DU-145 prostate and in the experiment with NCI/ADR-RES ovarian were more than 100 µM, more than 100 µM and more than 76.4 µM, respectively.

Turning to `O=C(Nc1cccc([N+](=O)[O-])c1)c1n[nH]n(-c2cccc([N+](=O)[O-])c2)c1=O`, the TGI in the experiment with MDA-N, in the experiment with SK-MEL-2 melanoma, in the experiment with SN12C renal, in the experiment on M14 melanoma, in the experiment with OVCAR-5 ovarian and in the experiment with SF-295 CNS was more than 100 µM in each case. The TGI in the experiment on DU-145 prostate and with NCI/ADR-RES ovarian was more than 100 µM throughout.

`CCCCCCCCCCCCCCCCOP(=O)(O)OCC(N)C(=O)O` (configuration not stated): the TGI in the experiment on MDA-N stood at 43.1 µM; in the experiment on SK-MEL-2 melanoma it was 40.5 µM; in the experiment with SN12C renal, 37.1 µM; with M14 melanoma, 46.5 µM; in the experiment on OVCAR-5 ovarian, 45.1 µM; in the experiment on SF-295 CNS it was 31.3 µM. Besides, the TGI with OVCAR-4 ovarian is 35.6 µM; in the experiment with DU-145 prostate, more than 100 µM; in the experiment on NCI/ADR-RES ovarian, more than 100 µM.

Turning to `CCOC(=O)Nc1ccc2c(c1)c(CCCCCCc1nc3ccccc3c3ccc(NC(=O)OCC)cc13)nc1ccccc12`, the TGI is more than 100 µM in the experiment on MDA-N; 71.2 µM with SK-MEL-2 melanoma; more than 100 µM in the experiment on SN12C renal; 88.8 µM with M14 melanoma; more than 100 µM in the experiment with OVCAR-5 ovarian; more than 100 µM in the experiment on SF-295 CNS. Moreover, the TGI is 74.2 µM in the experiment with OVCAR-4 ovarian, more than 100 µM with DU-145 prostate and more than 100 µM in the experiment on NCI/ADR-RES ovarian.

As for `CC(=O)Oc1c(-c2ccccc2)sc2ccccc12`, the TGI in the experiment on SK-MEL-2 melanoma was 31.4 µM; with OVCAR-5 ovarian, 61.5 µM; in the experiment with SF-295 CNS, 40.3 µM; in the experiment on BT-549 breast it was 50 µM; in the experiment on OVCAR-4 ovarian, 73.4 µM; in the experiment with DU-145 prostate it was 27.9 µM. The TGI with NCI/ADR-RES ovarian worked out at 59.1 µM.

On to `O=c1ccn(C2OC(CO)C(O)C2F)c(=O)n1Cc1ccccc1` (configuration not stated), for which the TGI in the experiment on MDA-N, in the experiment with SN12C renal, in the experiment on OVCAR-5 ovarian, in the experiment with SF-295 CNS, with DU-145 prostate and in the experiment on NCI/ADR-RES ovarian was more than 100 µM in each case.

In the case of `CC1(C)CCC(C)(C)C1C(=O)NC(O)C(=O)O` (configuration not stated), the TGI with MDA-N, with SK-MEL-2 melanoma, in the experiment with SN12C renal, in the experiment on M14 melanoma, in the experiment with OVCAR-5 ovarian and with DU-145 prostate was more than 100 µM throughout. This compound showed a TGI with NCI/ADR-RES ovarian of more than 100 µM.

Take `O=C(N/N=C\c1ccc(N(CCCl)CCCl)cc1[N+](=O)[O-])c1cccnc1`: the GI50 with SK-MEL-2 melanoma, in the experiment with SN12C renal, with M14 melanoma, in the experiment with OVCAR-5 ovarian, in the experiment with SF-295 CNS and with BT-549 breast was more than 100 µM in each case. Moreover, the GI50 with DU-145 prostate and with NCI/ADR-RES ovarian was more than 100 µM throughout. Besides, the TGI with SK-MEL-2 melanoma, in the experiment on SN12C renal, in the experiment on M14 melanoma, in the experiment on OVCAR-5 ovarian, in the experiment with SF-295 CNS and with BT-549 breast was more than 100 µM in each case. Further, the TGI in the experiment on DU-145 prostate and with NCI/ADR-RES ovarian was more than 100 µM in each case.

With `COC(=O)c1ccc(C)cc1CC1Cc2ccc(C)cc2C1=O` (configuration not stated), the TGI with SK-MEL-2 melanoma came to 30.6 µM; with SN12C renal, 32.7 µM; in the experiment with M14 melanoma, 32.2 µM; with OVCAR-5 ovarian, 92.4 µM; with SF-295 CNS it was 96.7 µM; with BT-549 breast, 52.6 µM. For the same compound, the TGI in the experiment with OVCAR-4 ovarian was 89.5 µM; with DU-145 prostate, more than 100 µM; with NCI/ADR-RES ovarian, 18.3 µM.

Turning to `COc1ccccc1NC(=O)CC(=O)N1N=C(N2c3ccccc3Sc3ccccc32)CC1c1ccccc1` (configuration not stated), the TGI with SK-MEL-2 melanoma, in the experiment on SN12C renal, in the experiment on M14 melanoma, in the experiment on OVCAR-5 ovarian, in the experiment on SF-295 CNS and with BT-549 breast was more than 100 µM throughout. The TGI in the experiment with OVCAR-4 ovarian, in the experiment on DU-145 prostate and in the experiment with NCI/ADR-RES ovarian was more than 100 µM in each case.

Regarding `COc1cc(OC)cc(-c2n/c(=C\c3c(O)[nH]c4ccc(OC)cc34)cc3c2=Nc2ccccc2-3)c1`, the GI50 is 20.8 µM in the experiment with SK-MEL-2 melanoma; more than 100 µM with SN12C renal; 2.24 µM in the experiment with M14 melanoma; 70.2 µM in the experiment with OVCAR-5 ovarian; 14.4 µM with SF-295 CNS; 2.19 µM with BT-549 breast. For the same compound, the GI50 with OVCAR-4 ovarian was 2.21 µM; in the experiment with DU-145 prostate, 3.49 µM; in the experiment on NCI/ADR-RES ovarian, 3.66 µM. The TGI in the experiment with SK-MEL-2 melanoma was 37.3 µM; in the experiment on SN12C renal, more than 100 µM; with M14 melanoma, 4.18 µM; in the experiment on OVCAR-5 ovarian, more than 100 µM; in the experiment on SF-295 CNS it was 34 µM; in the experiment on BT-549 breast it was 4.7 µM. The TGI came to 5.21 µM in the experiment on OVCAR-4 ovarian, 10.7 µM with DU-145 prostate and 18.7 µM in the experiment on NCI/ADR-RES ovarian.

The values above are taken from PubChem BioAssay (NCI).
